Data: ChEMBL document CHEMBL1201862, “PubChem BioAssay data set” (2004)
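These data come from cells grown in 96-well plates and exposed to compound for 48 hours at five concentrations. At the GI50, growth is halved.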 Active and inactive are the calls of the source. Rule as the data show it: active = GI50 up to about 1.1 µM and inactive = higher.

What was measured:
Test in all cases: NCI-60 cell line screen, 48 h
[1] = test system: SK-MEL-5
[2] = test system: NCI/ADR-RES
[3] = test system: ACHN
[4] = test system: UO-31
[5] = test system: IGROV-1
[6] = test system: COLO 205
[7] = test system: MDA-N
[8] = test system: MOLT-4
[9] = test system: TK-10
[10] = test system: SN12C
[11] = test system: SR
[12] = test system: MCF7
[13] = test system: SK-MEL-28
[14] = test system: SF-295
[15] = test system: DU-145
[16] = test system: Hs-578T
[17] = test system: HL-60
[18] = test system: SF-539
[19] = test system: M14
[20] = test system: SW-620
[21] = test system: UACC-257
[22] = test system: OVCAR-5
[23] = test system: HCC 2998
[24] = test system: HCT-116
[25] = test system: OVCAR-8
[26] = test system: A498
[27] = test system: SF-268
[28] = test system: BT-549
[29] = test system: OVCAR-3
[30] = test system: HOP-92
[31] = test system: HOP-62
[32] = test system: CAKI-1
[33] = test system: PC-3
[34] = test system: HT-29
[35] = test system: KM12
[36] = test system: SNB-19
[37] = test system: MDA-MB-435
[38] = test system: NCI-H23
[39] = test system: A549
[40] = test system: CCRF-CEM
[41] = test system: HCT-15
[42] = test system: U-251
[43] = test system: RPMI-8226
[44] = test system: NCI-H460
[45] = test system: SK-OV-3
[46] = test system: Malme-3M
[47] = test system: EKVX
[48] = test system: 786-0
[49] = test system: LOX IMVI
[50] = test system: T47D
[51] = test system: MDA-MB-231
[52] = test system: SNB-75
[53] = test system: OVCAR-4
[54] = test system: UACC-62
[55] = test system: NCI-H226
[56] = test system: SK-MEL-2
[57] = test system: NCI-H522
[58] = test system: K562

## NP1(Oc2ccc(F)cc2)=NP(N)(Oc2ccc(F)cc2)=NP(Oc2ccc(F)cc2)(Oc2ccc(F)cc2)=N1 (configuration not stated)
[1]
  GI50: 4.91 µM (inactive)
[2]
  GI50: 6.17 µM (inactive)
[3]
  GI50: 3.32 µM (inactive)
[4]
  GI50: 4.06 µM (inactive)
[5]
  GI50: 2.54 µM (inactive)
[6]
  GI50: 6.64 µM (inactive)
[7]
  GI50: 6.47 µM (inactive)
[8]
  GI50: 3.37 µM (inactive)
[9]
  GI50: 2.77 µM (inactive)
[10]
  GI50: 6.18 µM (inactive)
[11]
  GI50: 4.56 µM (inactive)
[12]
  GI50: 2.94 µM (inactive)
[13]
  GI50: 12.4 µM (inactive)
[14]
  GI50: 4.4 µM (inactive)
[15]
  GI50: 7.52 µM (inactive)
[16]
  GI50: 5.64 µM (inactive)
[17]
  GI50: 5.09 µM (inactive)
[18]
  GI50: 14.5 µM (inactive)
[19]
  GI50: 6.9 µM (inactive)
[20]
  GI50: 12.4 µM (inactive)
[21]
  GI50: 12.3 µM (inactive)
[22]
  GI50: 11.5 µM (inactive)
[23]
  GI50: 3.19 µM (inactive)
[24]
  GI50: 4.58 µM (inactive)
[25]
  GI50: 3.5 µM (inactive)
[26]
  GI50: < 0.01 µM (active)
[27]
  GI50: 13.8 µM (inactive)
[28]
  GI50: 2.23 µM (inactive)
[29]
  GI50: 4.68 µM (inactive)
[30]
  GI50: 3.78 µM (inactive)
[31]
  GI50: 9.68 µM (inactive)
[32]
  GI50: 10.2 µM (inactive)
[33]
  GI50: 4.85 µM (inactive)
[34]
  GI50: 5.43 µM (inactive)
[35]
  GI50: 4.19 µM (inactive)
[36]
  GI50: 10.9 µM (inactive)
[37]
  GI50: 7.01 µM (inactive)
[38]
  GI50: 11.2 µM (inactive)
[39]
  GI50: 3.99 µM (inactive)
[40]
  GI50: 6.21 µM (inactive)
[41]
  GI50: 3.81 µM
[42]
  GI50: 4.78 µM (inactive)
[43]
  GI50: 4.59 µM (inactive)
[44]
  GI50: 3.7 µM (inactive)
[45]
  GI50: 14.2 µM (inactive)
[46]
  GI50: 5.27 µM (inactive)
[47]
  GI50: 6.82 µM (inactive)
[48]
  GI50: 11 µM (inactive)
[49]
  GI50: 6.84 µM (inactive)
[50]
  GI50: 2.4 µM (inactive)
[51]
  GI50: 11.4 µM (inactive)
[52]
  GI50: 3.67 µM (inactive)

## NCCNC(=O)CN(CC(=O)O)C1CCCCC1N(CC(=O)O)CC(=O)O (configuration not stated)
[1]
  GI50: > 100 µM (inactive)
[2]
  GI50: > 100 µM (inactive)
[3]
  GI50: > 100 µM (inactive)
[4]
  GI50: > 100 µM (inactive)
[5]
  GI50: > 100 µM (inactive)
[6]
  GI50: > 100 µM (inactive)
[7]
  GI50: > 100 µM (inactive)
[53]
  GI50: > 100 µM (inactive)
[8]
  GI50: > 100 µM (inactive)
[9]
  GI50: > 100 µM (inactive)
[10]
  GI50: > 100 µM (inactive)
[11]
  GI50: > 100 µM (inactive)
[12]
  GI50: > 100 µM (inactive)
[13]
  GI50: > 100 µM (inactive)
[14]
  GI50: > 100 µM (inactive)
[15]
  GI50: > 100 µM (inactive)
[16]
  GI50: 56 µM (inactive)
[54]
  GI50: > 100 µM (inactive)
[17]
  GI50: > 100 µM (inactive)
[18]
  GI50: > 100 µM (inactive)
[19]
  GI50: > 100 µM (inactive)
[20]
  GI50: > 100 µM (inactive)
[21]
  GI50: > 100 µM (inactive)
[22]
  GI50: > 100 µM (inactive)
[55]
  GI50: > 100 µM (inactive)
[23]
  GI50: > 100 µM (inactive)
[24]
  GI50: > 100 µM (inactive)
[56]
  GI50: > 100 µM (inactive)
[25]
  GI50: > 100 µM (inactive)
[57]
  GI50: > 100 µM (inactive)
[26]
  GI50: > 100 µM (inactive)
[27]
  GI50: 24.4 µM (inactive)
[28]
  GI50: > 100 µM (inactive)
[29]
  GI50: > 100 µM (inactive)
[30]
  GI50: 11.7 µM (inactive)
[31]
  GI50: > 100 µM (inactive)
[32]
  GI50: > 100 µM (inactive)
[33]
  GI50: > 100 µM (inactive)
[34]
  GI50: > 100 µM (inactive)
[35]
  GI50: > 100 µM (inactive)
[36]
  GI50: > 100 µM (inactive)
[37]
  GI50: > 100 µM (inactive)
[38]
  GI50: > 100 µM (inactive)
[39]
  GI50: > 100 µM (inactive)
[40]
  GI50: > 100 µM (inactive)
[41]
  GI50: > 100 µM
[42]
  GI50: > 100 µM (inactive)
[43]
  GI50: > 10 µM (inactive)
[44]
  GI50: > 100 µM (inactive)
[45]
  GI50: > 100 µM (inactive)
[46]
  GI50: > 100 µM (inactive)
[47]
  GI50: > 100 µM (inactive)
[48]
  GI50: > 100 µM (inactive)
[49]
  GI50: > 100 µM (inactive)
[50]
  GI50: > 100 µM (inactive)
[51]
  GI50: > 100 µM (inactive)
[58]
  GI50: > 100 µM (inactive)
[52]
  GI50: 2.32 µM (inactive)

## CCC(C)C1(O)OC2CC3(C)OC(=CC3=O)/C(C)=C\C3OC(=O)C1(C)C32 (configuration not stated)
[1]
  GI50: 10.5 µM (inactive)
[2]
  GI50: 17.2 µM (inactive)
[3]
  GI50: 9.14 µM (inactive)
[4]
  GI50: 17.8 µM (inactive)
[5]
  GI50: 18.8 µM (inactive)
[6]
  GI50: 8.93 µM (inactive)
[7]
  GI50: 1.73 µM (inactive)
[53]
  GI50: 42.5 µM (inactive)
[8]
  GI50: 12.3 µM (inactive)
[9]
  GI50: 21 µM (inactive)
[10]
  GI50: 11.8 µM (inactive)
[11]
  GI50: 5 µM (inactive)
[12]
  GI50: 9.77 µM (inactive)
[13]
  GI50: 14.3 µM (inactive)
[14]
  GI50: 20.5 µM (inactive)
[15]
  GI50: 4.68 µM (inactive)
[16]
  GI50: 30.5 µM (inactive)
[54]
  GI50: 14.3 µM (inactive)
[17]
  GI50: 3.12 µM (inactive)
[18]
  GI50: 22.3 µM (inactive)
[19]
  GI50: 21.1 µM (inactive)
[20]
  GI50: 3.37 µM (inactive)
[21]
  GI50: 7.01 µM (inactive)
[22]
  GI50: 28.3 µM (inactive)
[55]
  GI50: 25.9 µM (inactive)
[23]
  GI50: 15.2 µM (inactive)
[24]
  GI50: 6.47 µM (inactive)
[56]
  GI50: 21.3 µM (inactive)
[25]
  GI50: 16 µM (inactive)
[57]
  GI50: 3.92 µM (inactive)
[26]
  GI50: 25.2 µM (inactive)
[27]
  GI50: 13.9 µM (inactive)
[28]
  GI50: 3.57 µM (inactive)
[29]
  GI50: 10.4 µM (inactive)
[30]
  GI50: 8.75 µM (inactive)
[31]
  GI50: 22.8 µM (inactive)
[32]
  GI50: 14.4 µM (inactive)
[33]
  GI50: 37.2 µM (inactive)
[34]
  GI50: 14.2 µM (inactive)
[35]
  GI50: 10.6 µM (inactive)
[36]
  GI50: 33.7 µM (inactive)
[37]
  GI50: 11.9 µM (inactive)
[38]
  GI50: 5.53 µM (inactive)
[39]
  GI50: 24.8 µM (inactive)
[40]
  GI50: 4.83 µM (inactive)
[41]
  GI50: 3.3 µM
[42]
  GI50: 27.5 µM (inactive)
[43]
  GI50: 7.1 µM (inactive)
[44]
  GI50: 14.2 µM (inactive)
[45]
  GI50: 37.6 µM (inactive)
[47]
  GI50: 12.7 µM (inactive)
[48]
  GI50: 16.6 µM (inactive)
[49]
  GI50: 14.7 µM (inactive)
[50]
  GI50: 15 µM (inactive)
[51]
  GI50: 19.1 µM (inactive)
[58]
  GI50: 7.6 µM (inactive)
[52]
  GI50: 37.2 µM (inactive)
